US20240049720A1, “A SYNERGISTIC AGRICULTURAL COMPOSITION” (priority 2021, published 2024)

Legend:
Fusarium spp = experiment: In vitro control of Fusarium spp on PDA medium; format: cell-based; conditions: strain isolated from potato, dose 1 L/400 L water, mixture in 1:1 ratio, 28-30° C, dark, evaluated 7 days later
Procedure: In Vitro Control of Fusarium spp Using Kasugamycin and Copper Glycinate
A strain of Fusarium spp isolated from potato was cultivated was in solid potato dextrose agar medium. The efficacy of the mixture of kasugamycin and copper glycinate in a 1:1 ratio, and each component individually was tested.
(§1) The in vitro assessment of the products effectiveness was carried out as per the treatments discussed in Table 4. Accordingly, the components in each treatment were dissolved in PDA culture medium at the dose indicated above. The mixture was homogenized and poured into sterile petri dishes. Explants of 5 mm diameter of the fungus strain Fusarium spp. were placed on the petri dishes with PDA. The dishes were incubated inverted, in dark conditions at a temperature of 28-30° C. The evaluation of the inhibition of the fungus was carried out 7 days later. Control percentage of Fusarium sp. with the K+CuGly mixture, as well as of kasugamycin and copper monoglycinate separately are provided in Table 5 below: […]

Alternaria alternata = experiment: In vitro control of Alternaria alternata on PDA medium; format: cell-based; conditions: dose 1 L/400 L water, mixture in 1:1 ratio, 28-30° C, dark, evaluated 7 days later
Procedure: In Vitro Control of Alternaria alternata Using Kasugamycin and Copper Glycinate
Alternaria alternata was cultivated was in solid potato dextrose agar medium. The efficacy of the mixture of kasugamycin and copper glycinate in a 1:1 ratio, and each component individually was tested.
as §1, with “6.” for “4.”, “Alternaria alternata” for “Fusarium spp.”, “Alternaria alternata” for “Fusarium sp.”

Erwinia amylovora = experiment: Foliar application on apple trees (var. gala), control of Erwinia amylovora; format: in vivo; conditions: apple plants var. Gala; foliar spray, three applications every 7 days; kasugamycin 3.15 g/kg and/or copper 8 g/kg (17.32 g/kg copper monoglycinate)
Source text: Example 4: Foliar Application of Kasugamycin and Copper Glycinate in Apple Trees (var. gala) for Controlling Erwinia amylovora
Apple trees (var. gala) were foliar sprayed with formulations having kasugamycin alone, copper glycinate alone, and combination of kasugamycin and copper glycinate. The formulation having Kasugamycin alone was applied at a dosage of 3.15 g/kg of kasugamycin (3.45 g/kg of kasugamycin hydrochloride hydrate). The formulation having copper monoglycinate was applied at a dosage of 8 g/kg of copper (17.32 g/kg of copper monoglycinate). The formulation having kasugamycin and copper monoglycinate was applied at a dosage of 3.15 g/kg of kasugamycin (3.45 g/kg of kasugamycin hydrochloride hydrate) and 8 g/kg of copper (17.32 g/kg of copper monoglycinate).
Three applications were made every 7 days when the first symptoms of the disease appeared, and the % control of Erwinia amylovora was determined. Control percentage of Erwinia amylovora with the K+CuGly mixture, as well as of kasugamycin and copper monoglycinate separately, are provided in Table 3 below: […]

[1] = test system: Xanthomonas campestris pv. vesicatoria; experiment: Foliar application on tomato plants (var. Pony express), control of bacterial disease; format: in vivo; conditions: foliar spray, three applications every 7 days, kasugamycin 2.1 g/kg and/or copper 8 g/kg (17.32 g/kg copper monoglycinate)
Source text: Example 3: Foliar Application of Kasugamycin and Copper Glycinate in Tomato Plants (Var. Pony Express) for Controlling Xanthomonas campestris pv. vesicatoria
Tomato plants (var. Pony express) were foliar sprayed with formulations having kasugamycin alone, copper monoglycinate alone, and combination of kasugamycin and copper monoglycinate. The formulation having kasugamycin alone was applied at a dosage of 2.1 g/kg of kasugamycin (2.3 g/kg of kasugamycin hydrochloride hydrate) and the treatment was designated as T1. The formulation having copper monoglycinate was applied at a dosage of 8 g/kg of copper (17.32 g/kg of copper monoglycinate) and the treatment was designated as T2. The formulation having kasugamycin and copper monoglycinate was applied at a dosage of 2.1 g/kg of kasugamycin (2.3 g/kg of kasugamycin hydrochloride hydrate) and 8 g/kg of copper (17.32 g/kg of copper monoglycinate) and the treatment was designated as T3.
Three applications were made every 7 days when the first symptoms of the disease appeared, and the % control of […] was determined. Control percentage of Xanthomonas campestris pv. vesicatoria with the K+CuGly mixture, as well as of kasugamycin and copper glycinate separately are provided in Table 2 below: […]

Compound	% control of Fusarium sp. (Fusarium spp)	% Control of Alternaria alternata (Alternaria alternata)	% control of Erwinia amylovora (Erwinia amylovora)	% control of Xanthomonas campestris pv. vesicatoria [1]
C[C@H]1O[C@H](O[C@H]2[C@H](O)[C@@H](O)[C@@H](O)[C@H](O)[C@@H]2O)[C@@H](N)C[C@@H]1NC(=N)C(=O)O [Kasugamycin]	55%	79%	55.6%	93.2%
Copper monoglycinate [Copper glycinate]	39%	53%	50%	80.5%
